# Target: T1, WT GlyT2 (Homo sapiens, UniProt Q9Y345)
# T1 sequence (Q9Y345 1-797): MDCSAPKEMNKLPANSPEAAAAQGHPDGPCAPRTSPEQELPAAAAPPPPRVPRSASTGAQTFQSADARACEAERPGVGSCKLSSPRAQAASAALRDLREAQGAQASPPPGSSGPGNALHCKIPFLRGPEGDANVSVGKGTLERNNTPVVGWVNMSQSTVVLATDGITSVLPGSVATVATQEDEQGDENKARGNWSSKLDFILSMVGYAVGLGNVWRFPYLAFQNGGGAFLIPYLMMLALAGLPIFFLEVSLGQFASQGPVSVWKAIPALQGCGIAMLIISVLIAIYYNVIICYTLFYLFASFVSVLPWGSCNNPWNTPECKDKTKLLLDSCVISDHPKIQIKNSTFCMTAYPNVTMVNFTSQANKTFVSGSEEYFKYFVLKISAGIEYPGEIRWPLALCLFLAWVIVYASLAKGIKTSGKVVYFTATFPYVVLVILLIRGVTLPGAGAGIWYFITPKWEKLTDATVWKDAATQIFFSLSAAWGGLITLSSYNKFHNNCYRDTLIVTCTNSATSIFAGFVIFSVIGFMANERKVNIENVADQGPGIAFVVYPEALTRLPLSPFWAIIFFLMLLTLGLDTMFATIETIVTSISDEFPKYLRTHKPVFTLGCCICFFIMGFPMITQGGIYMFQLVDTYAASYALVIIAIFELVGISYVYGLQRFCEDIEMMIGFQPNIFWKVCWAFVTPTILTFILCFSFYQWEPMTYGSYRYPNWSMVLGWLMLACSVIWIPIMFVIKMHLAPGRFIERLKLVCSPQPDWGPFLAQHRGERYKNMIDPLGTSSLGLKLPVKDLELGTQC
# Conditions: read-out: Glycine EC50; WT GlyT2 in Xenopus laevis oocytes; glycine 1 μM – 3 mM
# Experimental: The transport activity of GlyT2 is an electrogenic process as it couples the transport of glycine to the co-transport of 3 Na^+ and 1 Cl^− and thus can be measured using two-electrode voltage-clamp electrophysiology. Oocytes expressing GlyTs were voltage-clamped at −60 mV, and glycine-induced whole-cell currents were measured using a GeneClamp 500 amplifier (Axon Instruments), and a PowerLab 2/26 chart recorder (ADInstruments) and LabChart Software (ADInstruments).
# Functionality of WT and mutant GlyT2 transporters was assessed by applying increasing concentrations of glycine (1–3,000 µM) in ND96 until a stable current was achieved. Glycine concentrations were applied individually and completely removed from the system via washing with recording buffer before proceeding to the next concentration. EC50 values for each transporter were determined by fitting concentration–response data to the modified Michaelis–Menten equation: I=([Gly].Imax)/(EC50+[Gly]), where I is current in nA, [Gly] is the concentration of glycine, Imax is the current generated by a maximal concentration of glycine, and EC50 is the concentration of glycine that generates a half-maximal current.
smiles,measurement,value
"NCC(=O)O [Glycine, glycine]",EC50,18 µM

# Source: PMC9873984, “Membrane cholesterol regulates inhibition and substrate transport by the glycine transporter, GlyT2” (Life Science Alliance, 2023)
